One data set in a line: Toxicity LD50 mouse. The conditions noted are these: in vivo, po, read-out: Toxicity LD 50.
Data set [1] deals with generalized trembling caused by dl-5-hydroxytryptophane. In words: Test A: potentiation in mice of generalized trembling caused by dl-5-hydroxytryptophane. The format is in vivo. The conditions noted are these: Mus musculus, po, read-out: Test A ED 50. The procedure:
Test A: Potentiation in mice of generalized trembling caused by an interperitoneal injection (200 mg/kg) of dl-5-hydroxytryptophane, following the protocol described by C. GOURET and G. RAYNAUD in J. Pharmacol. (Paris), (1974), 5, 231.

Data set [2] concerns ptosis observed one hour after reserpine. Put plainly: Test B: antagonism of reserpine-induced ptosis in mice. The data set is classed as in vivo. The settings on record: Mus musculus, 1 h, po, antagonism of ptosis one hour after reserpine 2 mg/kg intravenous, read-out: Test B ED 50. The protocol: Test B: Antagonism with respect to the ptosis observed one hour after an intravenous injection (2 mg/kg) of reserpine given to mice, following the protocol described by C.

The mark [3] stands for this setting: mice, potentiation of trembling by dl-5-hydroxytryptophane 200 mg/kg interperitoneal.

The text below walks through data of patent US4348393A, “N-Aryl oxazolidinones, oxazolidinethiones, pyrrolidinones, pyrrolidines and thiazolidinones” (Delalande S.A., priority 1978, dated 1982).

Where two headings read alike, the source gives them in different places. Some results are limits rather than exact numbers.

Consider `COCC1CN(c2ccc(CCc3ccccc3)cc2)C(=O)O1` (stereo not drawn) [compound 192], for which the LD50 in “Toxicity LD50 mouse” is over 1000 mg/kg. In addition, the ED50 in data set [1] (setting [3]) is 5.8 mg/kg; in data set [2], 6 mg/kg.

Consider `NCC1CN(c2ccc(OCc3cc(Cl)cc([N+](=O)[O-])c3)cc2)C(=O)O1` (stereo not drawn) [compound 207], for which, in “Toxicity LD50 mouse”, the LD50 was over 1000 mg/kg. Besides, the ED50 came out at 9.1 mg/kg in data set [1] (setting [3]) and 7.6 mg/kg in data set [2].

With `COCC1CN(c2ccc(OCc3cccc([N+](=O)[O-])c3)cc2)C(=S)O1` (stereo not drawn) [compound 118], the LD50 in “Toxicity LD50 mouse” is over 2000 mg/kg. Moreover, the ED50 in data set [1] (setting [3]) turned out to be 1 mg/kg; in data set [2], 0.1 mg/kg.

In the case of `CCCOCC1CN(c2ccc(OCc3cccc([N+](=O)[O-])c3)cc2)C(=S)O1` (stereo not drawn) [compound 210], the LD50 in “Toxicity LD50 mouse” was over 1000 mg/kg. The ED50 in data set [1] (setting [3]) is 26 mg/kg; in data set [2], 7.4 mg/kg.

Take `COCC1CN(c2ccc(OCc3cccc([N+](=O)[O-])c3)cc2)C(=O)S1` (stereo not drawn) [compound 219, para (metanitro) benzyloxyphenyl-3 methoxymethyl-5 thiazolidinone-2]: the LD50 in “Toxicity LD50 mouse” was over 1000 mg/kg. Besides, the ED50 worked out at 7 mg/kg in data set [1] (setting [3]) and 13.5 mg/kg in data set [2].

For `CC=CCOc1ccc(N2CC(COC)OC2=O)cc1` (stereo not drawn) [compound 179], in “Toxicity LD50 mouse”, the LD50 was over 1000 mg/kg. For the same compound, the ED50 was found to be 4.5 mg/kg in data set [1] and 7 mg/kg in data set [2].

In the case of `N#CCCCOc1ccc(N2CC(CO)OC2=S)cc1` (stereo not drawn) [compound 212], the LD50 in “Toxicity LD50 mouse” amounted to 1000 mg/kg. Moreover, the ED50 in data set [1] (setting [3]) stood at 4.3 mg/kg; in data set [2], 12 mg/kg.

With `COCC1CN(c2ccc(C#Cc3ccccc3)cc2)C(=O)O1` (stereo not drawn) [compound 189], the LD50 in “Toxicity LD50 mouse” is over 1000 mg/kg. The values for the ED50 in data set [1] (setting [3]) and in data set [2] were 2.6 mg/kg and 0.9 mg/kg, respectively.

Consider `COCC1CN(c2ccc(OCC3CCCCC3)cc2)C(=S)O1` (stereo not drawn) [compound 114], for which the LD50 in the data set “Toxicity LD50 mouse” is over 2000 mg/kg. Further, the ED50 in data set [1] (setting [3]) was determined as 3.7 mg/kg; in data set [2] it was 2 mg/kg.

With `N#Cc1cc(COc2ccc(N3CC(CO)OC3=S)cc2)ccc1F` (stereo not drawn) [compound 209], the LD50 in the data set “Toxicity LD50 mouse” is 1000 mg/kg. The figures for the ED50 in data set [1] (setting [3]) and in data set [2] were 7 mg/kg and 6.7 mg/kg, respectively.

`COCC1CN(c2ccc(OCCC(C)C)cc2)C(=S)O1` (stereo not drawn) [compound 214]: in “Toxicity LD50 mouse”, the LD50 came out at 1000 mg/kg. For the same compound, the ED50 was determined as 0.84 mg/kg in data set [1] (setting [3]) and 1.8 mg/kg in data set [2].

`CCNCC1CN(c2ccc(OCc3cccc([N+](=O)[O-])c3)cc2)C(=O)O1` (stereo not drawn) [compound 203]: in the data set “Toxicity LD50 mouse”, the LD50 was 1000 mg/kg. The ED50 in data set [1] (setting [3]) came out at 5.2 mg/kg; in data set [2], 1.4 mg/kg.

Consider `CCC(=O)OCC1CN(c2ccc(OCc3cccc([N+](=O)[O-])c3)cc2)C(=S)O1` (stereo not drawn) [compound 208], for which the LD50 in the data set “Toxicity LD50 mouse” was over 1000 mg/kg. In addition, the ED50 in data set [1] (setting [3]) was 10 mg/kg; in data set [2], 4.2 mg/kg.

With `COCC1CN(c2ccc(OCC3CCC3)cc2)C(=O)O1` (stereo not drawn) [compound 183], in the data set “Toxicity LD50 mouse”, the LD50 was over 1000 mg/kg. Also, the ED50 in data set [1] (setting [3]) turned out to be 1.9 mg/kg; in data set [2] it was 2.4 mg/kg.

As for `COCC1CN(c2ccc(OCc3cccc(I)c3)cc2)C(=O)O1` (stereo not drawn) [compound 198], in “Toxicity LD50 mouse”, the LD50 is over 1000 mg/kg. For the same compound, the ED50 turned out to be 40 mg/kg in data set [1] (setting [3]) and 34 mg/kg in data set [2].

As for `CN(C)CC1CN(c2ccc(OCc3cccc(C#N)c3)cc2)C(=O)O1` (stereo not drawn) [compound 206], the LD50 in “Toxicity LD50 mouse” is over 1000 mg/kg. Also, the ED50 in data set [1] (setting [3]) is 6 mg/kg; in data set [2] it was 4.3 mg/kg.

Consider `COCC1CN(c2ccc(/C=C/c3cccc([N+](=O)[O-])c3)cc2)C(=O)O1` (stereo not drawn) [compound 191], for which the LD50 in “Toxicity LD50 mouse” worked out at 1000 mg/kg. Also, the results for the ED50 in data set [1] (setting [3]) and in data set [2] were 0.4 mg/kg and 0.38 mg/kg, respectively.

Regarding `N#CCCCCOc1ccc(N2CC(CO)OC2=S)cc1` (stereo not drawn) [compound 215], in “Toxicity LD50 mouse”, the LD50 was over 1000 mg/kg. Besides, the ED50 in data set [1] (setting [3]) turned out to be 6.2 mg/kg; in data set [2], 10 mg/kg.

With `CC(=O)OCC1CN(c2ccc(OCC3CCCC3)cc2)C(=O)O1` (stereo not drawn) [compound 13], in “Toxicity LD50 mouse”, the LD50 is over 2000 mg/kg. The ED50 in data set [1] (setting [3]) was 3 mg/kg; in data set [2], 2 mg/kg.

For the compound `COCC1CN(c2ccc(OCc3cc(C#N)cc([N+](=O)[O-])c3)cc2)C(=O)O1` (stereo not drawn) [compound 161], the LD50 in “Toxicity LD50 mouse” is over 2000 mg/kg. Moreover, the ED50 in data set [1] (setting [3]) worked out at 1.1 mg/kg; in data set [2] it was 0.36 mg/kg.

In the case of `CC(=O)OCC1CN(c2ccc(OCCC(C)C)cc2)C(=O)O1` (stereo not drawn) [compound 123], in the data set “Toxicity LD50 mouse”, the LD50 was over 2000 mg/kg. In addition, the ED50 in data set [1] (setting [3]) turned out to be 2 mg/kg; in data set [2], 1.4 mg/kg.

As for `COCC1CN(c2ccc(OCc3cccc([N+](=O)[O-])c3)cc2)C(=O)O1` (stereo not drawn) [compound 61, para (meta-nitrobenzyloxy) phenyl-3 methoxymethyl-5 oxazolidinone-2], the LD50 in the data set “Toxicity LD50 mouse” came to 1500 mg/kg. Moreover, the ED50 in data set [1] (setting [3]) turned out to be 0.08 mg/kg; in data set [2] it was 0.1 mg/kg.

For `COCC1CN(c2ccc(OCc3cccc(Br)c3)cc2)C(=O)O1` (stereo not drawn) [compound 197], in the data set “Toxicity LD50 mouse”, the LD50 was over 1000 mg/kg. Besides, the ED50 in data set [1] (setting [3]) turned out to be 2.2 mg/kg; in data set [2] it was 6.7 mg/kg.

As to `N#Cc1cccc(COc2ccc(N3CC(CN)OC3=O)cc2)c1` (stereo not drawn) [compound 205], the LD50 in “Toxicity LD50 mouse” is over 1000 mg/kg. Besides, the ED50 in data set [1] (setting [3]) came to 10.1 mg/kg; in data set [2], 3 mg/kg.
